Read-outs that look alike come from different tables or passages of the source. Values belong to the compound of their own block, whether it stands above or below them.
How the values were obtained:
[1] = molecular target: T1, skeletal muscle CRC (skeletal muscle ryanodine receptor RyR1) (Oryctolagus cuniculus, UniProt P11716); assay: single channel activity (open probability) of skeletal muscle Ca2+ release channel reconstituted in planar lipid bilayer; assay type: biochemical, rabbit (New Zealand White); details: sub-micromolar 4-MmC; FIG. 5
T1 construct: heavy sarcoplasmic reticulum vesicles from fast twitch skeletal muscle fused to planar lipid bilayer; single channel recording
Protocol: Fast twitch skeletal muscle sarcoplasmic reticulum was isolated from New Zealand White rabbit, a rich source of skeletal receptors. Following isolation of a crude fraction, the SR was placed on a discontinuous sucrose gradient and a heavy fraction (HSR) was used for all single channel experiments. Ca^2+ release channel reconstitution into a bilayer membrane was carried out by the addition of SR vesicles to the cis side of a planar bilayer lipid membrane. Bilayers, made with a 5:3:2 mixture of phosphatidylethanolamine:phosphatidylserine:phosphatidylcholine (Avanti Polar Lipids) at 50 mg/ml in decane, were formed across a 150 μm hole drilled in a polystyrene cup separating two chambers of 0.7 ml each. The cis chamber contained 400 mM cesium methane sulfonate (CsMS), 50 μM CaCl2, 25 mM HEPES, pH 7.4, while the trans side contained 40 mM CsMS, 25 mM HEPES pH 7.4. SR vesicles, suspended in 0.4-0.6 M sucrose, 400 mM CsMS were added to the cis chamber at a final concentration of 5-20 μg/ml. […] Channel activity was then measured at a holding potential of +25 mV with respect to the trans (ground) side. […] The data were interfaced through a Digidata 1322A 16 bit data Acquisition System (Axon Instruments), stored filtered at 1 kHz and analyzed for single channel activity using pCLAMP software package (version 9.0, Axon Instruments, Burlingame, Calif.).

[2] = electron donor activity (XTT reduction); assay type: physicochemical; details: Michaelis-Menten fit, read-out: Kd (concentration at which half maximal electron donor activity is observed)
Protocol: (§1) A sample buffer containing a compound to be tested and a photo-reactive dye (i.e., 10 μM methylene blue, eosin B or erythrosin B) can be continuously illuminated with white light (e.g., about 10 cm away from a halogen 20 W light source) and its spectral characteristics monitored as a function of time (e.g., using a HP8452A diode array spectrophotometer). This can be performed in the presence of oxygen. In general, oxygen dissolved in the solution may decrease the photochemical activity of the dye. To compensate and to increase the sensitivity of the method, a comparatively high light intensity can be used (e.g., in the range of about 1-3 mW/cm^2).
(§2) To determine if a compound is an electron acceptor, an electron donor (e.g., NADH or EDTA) can be added to the sample buffer to supply electrons to the photo-excited dye. The electron donor reduces the concentration of the dye cation radical and maintains an increased concentration of the dye anion radical. To test whether a compound is an electron donor, no separate electron donor is necessary. In both cases, a probe can be added (e.g., NBD-Cl or XTT) to react with superoxide and produce a detectable product. The product can be measured, for example, as an increase in absorbance at 470 nm. The difference between the probe absorbance at 470 nm in the presence of the compound to be tested and a control without the compound can be taken as a measure of redox activity of the compound.
When oxygen is unable to intercept all electrons from the dye anion radical, the dye anion radical may disproportionate and form a colorless compound. This process also may serve as a detectable variable corresponding to the redox activity of the tested compound. A compound with electron-acceptor properties intercepts electrons from dye anion radical and thus slows down the rate of dye photo-bleaching. A compound with electron-donor properties donates electrons to the dye cation radical, thus stabilizing the dye anion radical and increasing the rate of dye photo-bleaching. See also International Publication No. WO 2006/086670. […]

[3] = molecular target: T2, RyR1 (skeletal muscle CRC) (Oryctolagus cuniculus, UniProt P11716); assay: Single Ca2+ channel analysis: open probability of skeletal muscle CRC reconstituted in planar bilayer; assay type: biochemical, rabbit
T2 construct: from tissue; host or cells: fast twitch skeletal muscle of New Zealand White rabbit, heavy sarcoplasmic reticulum fraction
Protocol: Fast twitch skeletal muscle sarcoplasmic reticulum was isolated from New Zealand White rabbit, a rich source of skeletal receptors. Following isolation of a crude fraction, the SR was placed on a discontinuous sucrose gradient and a heavy fraction (HSR) was used for all single channel experiments. Ca^2+ release channel reconstitution into a bilayer membrane was carried out by the addition of SR vesicles to the cis side of a planar bilayer lipid membrane. Bilayers, made with a 5:3:2 mixture of phosphatidylethanolamine:phosphatidylserine:phosphatidylcholine (Avanti Polar Lipids) at 50 mg/ml in decane, were formed across a 150 μm hole drilled in a polystyrene cup separating two chambers of 0.7 ml each. […] SR vesicles, suspended in 0.4-0.6 M sucrose, 400 mM CsMS were added to the cis chamber at a final concentration of 5-20 μg/ml.

[4] = test system: Langendorff perfused rabbit hearts; assay: Dofetilide-induced arrhythmia (LQT2, EADs/TdP) in Langendorff perfused rabbit hearts; assay type: in vivo
Protocol: (§3) FIG. 12A plots the transmembrane potential (Vm) and intracellular calcium level (Cai) over a 3-second period five minutes after administration of dofetilide (0.5 μM). FIG. 12B plots the transmembrane potential (Vm) and intracellular calcium level (Cai) over a 3-second period ten minutes after administration of dofetilide (0.5 μM).
(§4) EADs are triggered by spontaneous SR Ca^2+ release and increase in severity or frequency leading to TdP after a few minutes.

ventricular myocytes = details: independent of the presence of FKBP12.6; Hunt et al. 2007; cited from earlier work
[5] = test system: TNF-α female perfused mouse hearts; assay: Ca2+ transients in Langendorff perfused mouse heart (Rhod-2 fluorescence); assay type: in vivo; details: for effect on Ca2+ transients, in words: nanomolar concentrations
Description: Ca^2+i transients were monitored in a Langendorff perfused mouse heart using Rhod-2 fluorescence.
It is believed that the faster and larger Ca^2+ transient is due to an increase in Ca^2+ load in the lumen of the SR caused by a reduced Ca^2+ “leak” from the SR.

[6] = test system: Langendorff perfused rabbit hearts; assay: arrhythmia induced by dofetilide in Langendorff perfused rabbit hearts; assay type: in vivo; details: with dofetilide 0.5 μM
Protocol: as §3, §4

[7] = molecular target: reactive thiols on the RyR/CRC (Oryctolagus cuniculus, UniProt P11716); assay: Redox potential of reactive thiols on RyR from rate of ryanodine binding vs solution redox potential; assay type: biochemical; details: tetracaine 25 μM; control (20 μM Ca2+) −160.3±3.2 mV
RyR1 = RyR1 (Oryctolagus cuniculus, UniProt P11716); assay: Thiol content of isolated RyR1 by CPM fluorescence; assay type: biochemical; details: 10 mM tetracaine; control ~47 thiols per monomeric receptor
[8] = Electron donor activity: initial rate of XTT reduction; assay type: physicochemical; details: initial rate of XTT reduction fit to Michaelis-Menton equation; read-out: Kd, concentration at which half maximal electron donor activity is observed
Protocol: as §1
as §2, with “In both cases, a probe can be added (e.g., NBD-Cl or XTT) to react with superoxide and produce a detectable product.” left out, “compound. […]” for “compound.”

[9] = skeletal muscle CRC, four parameter logistic curve fit, FIG. 2, read-out: IC50, concentration required to half maximally inhibit single channel activity

T2 sequence (P11716 whole entry): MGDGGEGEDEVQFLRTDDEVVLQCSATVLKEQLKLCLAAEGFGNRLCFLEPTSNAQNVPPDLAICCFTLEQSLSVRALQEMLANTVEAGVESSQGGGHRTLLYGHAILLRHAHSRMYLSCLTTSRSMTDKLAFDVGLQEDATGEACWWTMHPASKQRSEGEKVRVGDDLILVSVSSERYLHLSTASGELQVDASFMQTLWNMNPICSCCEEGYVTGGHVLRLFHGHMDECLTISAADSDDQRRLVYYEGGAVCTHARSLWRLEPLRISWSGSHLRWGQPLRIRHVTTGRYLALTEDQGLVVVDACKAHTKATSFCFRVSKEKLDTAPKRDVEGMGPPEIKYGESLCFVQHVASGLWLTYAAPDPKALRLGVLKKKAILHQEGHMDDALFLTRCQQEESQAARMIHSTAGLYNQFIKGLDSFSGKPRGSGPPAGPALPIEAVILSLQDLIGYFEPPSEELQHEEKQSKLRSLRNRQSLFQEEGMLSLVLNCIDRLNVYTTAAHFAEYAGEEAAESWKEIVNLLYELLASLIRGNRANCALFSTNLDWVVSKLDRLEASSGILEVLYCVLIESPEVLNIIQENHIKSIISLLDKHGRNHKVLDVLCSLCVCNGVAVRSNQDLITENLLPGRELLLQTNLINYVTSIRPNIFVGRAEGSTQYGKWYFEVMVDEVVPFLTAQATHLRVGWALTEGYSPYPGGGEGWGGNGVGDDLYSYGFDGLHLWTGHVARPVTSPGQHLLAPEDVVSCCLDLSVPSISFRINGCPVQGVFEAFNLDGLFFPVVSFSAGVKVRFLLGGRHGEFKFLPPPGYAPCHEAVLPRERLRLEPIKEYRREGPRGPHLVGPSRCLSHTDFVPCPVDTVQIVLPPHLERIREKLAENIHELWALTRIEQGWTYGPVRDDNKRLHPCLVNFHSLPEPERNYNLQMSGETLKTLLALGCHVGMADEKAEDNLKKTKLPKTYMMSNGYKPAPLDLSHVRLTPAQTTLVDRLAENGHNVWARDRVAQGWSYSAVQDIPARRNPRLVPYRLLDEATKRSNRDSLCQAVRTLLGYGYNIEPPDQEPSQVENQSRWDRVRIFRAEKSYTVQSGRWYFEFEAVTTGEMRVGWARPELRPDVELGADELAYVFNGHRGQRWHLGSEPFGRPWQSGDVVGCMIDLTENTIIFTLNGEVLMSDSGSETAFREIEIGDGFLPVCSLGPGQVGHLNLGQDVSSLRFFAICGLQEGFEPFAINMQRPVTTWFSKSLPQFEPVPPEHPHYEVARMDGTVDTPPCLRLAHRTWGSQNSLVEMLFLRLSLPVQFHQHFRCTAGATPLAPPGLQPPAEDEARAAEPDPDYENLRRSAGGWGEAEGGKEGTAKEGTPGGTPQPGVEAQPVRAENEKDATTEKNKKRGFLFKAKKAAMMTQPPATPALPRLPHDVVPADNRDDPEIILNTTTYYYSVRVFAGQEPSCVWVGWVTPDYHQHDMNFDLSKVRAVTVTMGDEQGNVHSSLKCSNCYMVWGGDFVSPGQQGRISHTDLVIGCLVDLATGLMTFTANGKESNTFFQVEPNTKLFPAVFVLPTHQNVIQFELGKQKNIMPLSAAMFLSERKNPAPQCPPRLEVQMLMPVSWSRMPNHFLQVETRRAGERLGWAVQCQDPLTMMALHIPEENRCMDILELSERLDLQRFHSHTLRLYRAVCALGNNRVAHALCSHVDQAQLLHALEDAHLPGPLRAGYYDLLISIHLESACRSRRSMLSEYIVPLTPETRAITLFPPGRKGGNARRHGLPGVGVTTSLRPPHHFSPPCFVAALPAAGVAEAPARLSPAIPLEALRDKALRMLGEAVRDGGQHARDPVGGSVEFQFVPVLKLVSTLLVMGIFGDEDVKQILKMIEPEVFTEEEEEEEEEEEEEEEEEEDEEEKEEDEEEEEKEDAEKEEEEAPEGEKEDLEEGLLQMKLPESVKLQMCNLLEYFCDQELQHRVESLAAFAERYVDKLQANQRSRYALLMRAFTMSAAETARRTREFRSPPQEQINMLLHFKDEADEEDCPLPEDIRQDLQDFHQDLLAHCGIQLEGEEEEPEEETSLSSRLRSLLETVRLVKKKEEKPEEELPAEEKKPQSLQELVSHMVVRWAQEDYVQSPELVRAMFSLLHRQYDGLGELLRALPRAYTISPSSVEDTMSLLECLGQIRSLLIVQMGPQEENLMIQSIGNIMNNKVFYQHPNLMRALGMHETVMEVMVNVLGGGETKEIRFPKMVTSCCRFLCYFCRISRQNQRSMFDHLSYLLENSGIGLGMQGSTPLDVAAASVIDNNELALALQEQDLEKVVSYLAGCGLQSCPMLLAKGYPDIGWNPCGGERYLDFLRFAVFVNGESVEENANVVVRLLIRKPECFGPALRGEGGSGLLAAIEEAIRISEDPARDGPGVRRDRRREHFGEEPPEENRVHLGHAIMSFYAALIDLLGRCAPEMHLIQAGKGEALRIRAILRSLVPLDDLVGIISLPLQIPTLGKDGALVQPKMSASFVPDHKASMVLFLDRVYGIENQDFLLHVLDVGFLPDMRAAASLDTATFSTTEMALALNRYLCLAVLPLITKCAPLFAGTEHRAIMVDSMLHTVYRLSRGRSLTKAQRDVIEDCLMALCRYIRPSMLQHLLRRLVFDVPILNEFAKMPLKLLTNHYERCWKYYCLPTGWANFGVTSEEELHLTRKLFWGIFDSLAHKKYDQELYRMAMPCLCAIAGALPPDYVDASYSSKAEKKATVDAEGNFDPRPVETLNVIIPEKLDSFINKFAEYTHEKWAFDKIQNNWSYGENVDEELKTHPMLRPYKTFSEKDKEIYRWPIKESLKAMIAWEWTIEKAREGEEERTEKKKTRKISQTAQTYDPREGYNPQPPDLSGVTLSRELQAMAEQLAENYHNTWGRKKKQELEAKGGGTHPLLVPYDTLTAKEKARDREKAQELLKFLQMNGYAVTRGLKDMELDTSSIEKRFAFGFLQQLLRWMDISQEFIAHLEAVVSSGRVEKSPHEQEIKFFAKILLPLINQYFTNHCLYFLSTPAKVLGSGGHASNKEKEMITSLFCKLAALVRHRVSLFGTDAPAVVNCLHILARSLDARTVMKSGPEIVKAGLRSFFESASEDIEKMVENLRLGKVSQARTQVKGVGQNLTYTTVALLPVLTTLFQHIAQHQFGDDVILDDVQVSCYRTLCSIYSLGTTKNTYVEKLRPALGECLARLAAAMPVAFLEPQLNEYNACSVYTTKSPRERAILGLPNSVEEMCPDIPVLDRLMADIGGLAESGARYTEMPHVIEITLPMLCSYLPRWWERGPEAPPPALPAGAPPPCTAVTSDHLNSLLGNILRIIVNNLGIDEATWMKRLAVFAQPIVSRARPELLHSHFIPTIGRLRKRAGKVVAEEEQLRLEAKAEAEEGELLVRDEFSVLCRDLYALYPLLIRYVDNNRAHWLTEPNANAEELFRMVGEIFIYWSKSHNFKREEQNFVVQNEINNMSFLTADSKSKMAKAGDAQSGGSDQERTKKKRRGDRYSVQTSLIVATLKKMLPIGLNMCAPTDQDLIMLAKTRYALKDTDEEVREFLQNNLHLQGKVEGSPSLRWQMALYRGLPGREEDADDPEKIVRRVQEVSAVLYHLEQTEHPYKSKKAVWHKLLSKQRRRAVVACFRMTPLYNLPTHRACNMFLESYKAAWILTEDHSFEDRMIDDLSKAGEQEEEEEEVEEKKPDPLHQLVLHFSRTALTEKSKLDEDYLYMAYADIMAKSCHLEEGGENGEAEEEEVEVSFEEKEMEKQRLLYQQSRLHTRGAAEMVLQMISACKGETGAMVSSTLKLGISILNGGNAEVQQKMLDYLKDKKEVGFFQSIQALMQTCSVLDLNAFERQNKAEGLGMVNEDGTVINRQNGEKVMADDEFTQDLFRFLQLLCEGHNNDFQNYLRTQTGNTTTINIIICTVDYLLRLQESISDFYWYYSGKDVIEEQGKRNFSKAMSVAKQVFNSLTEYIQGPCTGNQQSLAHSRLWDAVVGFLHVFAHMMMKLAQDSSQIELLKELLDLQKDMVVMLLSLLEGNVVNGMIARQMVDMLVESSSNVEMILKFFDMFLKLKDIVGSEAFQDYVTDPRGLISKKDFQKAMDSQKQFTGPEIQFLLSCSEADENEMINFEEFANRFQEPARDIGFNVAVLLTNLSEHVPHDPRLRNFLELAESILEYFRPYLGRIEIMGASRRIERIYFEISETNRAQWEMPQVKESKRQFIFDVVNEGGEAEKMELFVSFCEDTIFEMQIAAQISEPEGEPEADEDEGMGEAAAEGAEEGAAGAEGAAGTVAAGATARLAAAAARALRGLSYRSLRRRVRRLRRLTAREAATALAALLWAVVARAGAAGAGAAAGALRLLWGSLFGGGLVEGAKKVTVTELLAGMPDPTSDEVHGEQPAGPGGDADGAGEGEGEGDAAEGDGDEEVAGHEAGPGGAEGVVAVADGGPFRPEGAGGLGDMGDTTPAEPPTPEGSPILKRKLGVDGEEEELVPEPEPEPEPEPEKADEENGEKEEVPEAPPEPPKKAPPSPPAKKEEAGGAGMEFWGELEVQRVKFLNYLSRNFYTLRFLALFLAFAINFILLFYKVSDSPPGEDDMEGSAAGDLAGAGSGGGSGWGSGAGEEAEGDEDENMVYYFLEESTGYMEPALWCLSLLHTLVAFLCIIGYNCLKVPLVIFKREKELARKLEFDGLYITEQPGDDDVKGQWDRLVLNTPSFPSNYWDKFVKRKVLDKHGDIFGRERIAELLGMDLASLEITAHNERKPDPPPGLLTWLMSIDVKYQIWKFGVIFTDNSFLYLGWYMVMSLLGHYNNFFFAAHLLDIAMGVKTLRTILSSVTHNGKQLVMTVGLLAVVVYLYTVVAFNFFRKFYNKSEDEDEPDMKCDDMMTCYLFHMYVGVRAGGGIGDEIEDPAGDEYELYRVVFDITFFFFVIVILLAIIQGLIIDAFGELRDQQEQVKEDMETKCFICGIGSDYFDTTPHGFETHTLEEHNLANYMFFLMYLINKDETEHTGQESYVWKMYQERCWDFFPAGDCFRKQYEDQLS
T2 sequence (P62943 2-108 partner limits assumed): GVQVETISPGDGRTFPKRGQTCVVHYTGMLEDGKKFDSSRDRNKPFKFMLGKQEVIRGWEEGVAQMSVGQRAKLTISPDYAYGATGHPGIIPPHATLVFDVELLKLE
Chain of RyR1 (P11716 whole entry): as the sequence (P11716 whole entry) above

Kd ([2]; listed as 4-methoxy-3-methyl phenol): 13 µM
Kd [2]: ~13 µM
open probability Po ([3]; +10 μM 4-MmC after 6 mM caffeine (Po=0.071), 50 μM Ca2+, FIG. 3C): 0.015
Ki ([3]; skeletal muscle CRC, FIG. 5, unit inferred, read-out: Ki for inhibition of single channel activity): ~0.5 µM
effect on open probability (Po), in words ([3]; sub-micromolar concentrations, FIG. 5): significantly decreased
Compound: COc1ccc(O)cc1C [4-MmC, 4-methoxy-3-methylphenol]
decrease of open probability (Po) at sub-micromolar concentrations [1]: significantly decreased the open probability (Po)

Compound: CN(CCOc1ccc(NS(C)(=O)=O)cc1)CCc1ccc(NS(C)(=O)=O)cc1 [Dofetilide, dofetilide, reference compound]
time to elicit EADs ([4]; dofetilide 0.5 μM): 5 min
pro-arrhythmic effect, in words ([4]; dofetilide 0.5 μM, panel B, ten minutes): promotes TdP

Compound: COc1ccc2c(c1)CN(C(=O)CCN1CCC(Cc3ccccc3)CC1)CCS2 [K201, reference compound]
Kd [2]: 28 µM
spontaneous Ca2+ release (ventricular myocytes): suppresses spontaneous Ca^2+ release in ventricular myocytes

Compound: COc1ccc2c(c1)CN(C(=O)CCN1CCC(Cc3ccccc3)CC1)CCS2 [K201]
concentration at which amplitude of Ca2+ transients was adversely affected ([5]; mouse, in vivo): 10 to 25 µM
effect on Ca2+ transients, in words [5]: enhance Ca^2+ transients
effect on channel activity in the absence of FKBP12, in words ([3]; 10 μM K201 after 20 μM FK506): still inhibited channel activity
open probability Po ([3]; +5 μM K201, 20 μM Ca2+, control Po=0.107, FIG. 8B): 0.060
open probability Po ([3]; +10 μM K201, 20 μM Ca2+, control Po=0.107, FIG. 8C): 0.047
open probability Po ([3]; +10 μM K201 on FK506-treated (20 μM) channel, Po=0.106 before, FIG. 9C): 0.009
IC50 ([3]; IC50 for K201 inhibition of RyR1, FIG. 2, as restated in Example 4, unit inferred): ~4 µM
IC50 [3, 9]: 3.98 ± 0.79 µM

IC50 [3, 9]: 0.24 ± 0.05 µM
potency of inhibition of single channel activity relative to K201 ([3]; skeletal muscle CRC, ratio of IC50 values): about 16 times
Compound: COc1ccc2c(c1)CN(C(=O)CCN1CCC(Cc3ccc4c(c3)OCO4)CC1)CCS2 [[1,3]dioxole derivative of K201, 3-(4-(benzo[d][1,3]dioxol-5-ylmethyl)piperidin-1-yl)-1-(7-methoxy-2,3-dihydrobenzo[f][1,4]thiazepin-4(5H)-yl)propan-1-one]
effect on arrhythmias induced by dofetilide, in words ([4]; 1 μM test compound, dofetilide 0.5 μM): reverse arrhythmias
effect on EADs and AP shape, in words ([4]; 1.0 μM, dofetilide 0.5 μM, adult female rabbit hearts paced at 1.2 second intervals): all EADs were suppressed
duration of protective effects ([4]; continuous perfusion with dofetilide and test compound): 20 min
effect on amount of SR Ca2+ release compared to controls, in words ([5]; high concentrations): did not reduce the amount of SR Ca^2+ release
concentration causing enhancement of fractional change in Rhod-2 fluorescence (Ca2+ transient) ([5]; lowest concentration stated (as low as)): 10 nM
effect on Ca2+ transients, in words [5]: enhance Ca^2+ transients

Compound: COc1ccc2c(c1)CN(C(=O)CCN1CCC(Cc3ccc4c(c3)OCO4)CC1)CCS2 [[1,3]dioxole derivative, 3-(4-(benzo[d][1,3]dioxol-5-ylmethyl)piperidin-1-yl)-1-(7-methoxy-2,3-dihydrobenzo[f][1,4]thiazepin-4(5H)-yl)propan-1-one]
action potential shape ([6]; 1.0 μM): the normal AP shape was restored
elimination of EADs and delayed afterdepolarizations (DADs) ([6]; 1.0 μM): eliminated both EADs and delayed afterdepolarizations (DADs)
reversal of arrhythmias induced by dofetilide ([6]; 1 μM, FIG. 12): can reverse arrhythmias induced by dofetilide

redox potential of the reactive thiols [7]: −147.7±2.8 mV
number of thiols reacting with CPM (RyR1): ~70 per monomer
Compound: CCCCNc1ccc(C(=O)OCCN(C)C)cc1 [tetracaine]

Kd [8]: ~12.4 µM
Compound: FKBP12: FK506 binding protein (calstabin1) that binds RyR1; endogenous electron donor

— patent US8933129B2, “Compounds and methods for modulating activity of calcium release channels” (State of Oregon by and through the State Board of Higher …, priority 2009, dated 2015)
